Test system: Lucilia cuprina larvae
Assay: Blowfly larvae test/development-inhibitory action
Format: in vivo
Conditions: 20 ppm; after 48 h
Procedure: 20 mg of active compound are dissolved in 1 ml of dimethyl sulphoxide. More dilute concentrations are prepared by dilution with distilled water.
About 20 Lucilia cuprina larvae are introduced into a test tube which contains about 1 cm^3 of horsemeat and 0.5 ml of the preparation of active compound to be tested. The activity of the preparation of active compound is determined after 24 and 48 hours. The test tubes are transferred into a beaker whose bottom is covered with sand. After a further 2 days, the test tubes are removed and the pupae are counted.
The activity of the preparation of active compound is assessed using the number of flies that have hatched after 1.5 times the development period of an untreated control. 100% means that none of the flies have hatched; 0% means that all of the flies have hatched normally.

| SMILES | activity/kill rate in % after 48 h |
| --- | --- |
| N#CCN(C(=O)N1CC(n2cc(C#N)cn2)C(c2ccc(Cl)cc2)=N1)c1ccc(OC(F)(F)F)cc1 (stereo not drawn) [drawing 85] | 100/100% |
| COC(=O)N(C(=O)N1CC(n2cc(C#N)cn2)C(c2ccc(Cl)cc2)=N1)c1ccc(OC(F)(F)F)cc1 (stereo not drawn) [drawing 79] | 100/100% |
| N#Cc1cnn(C2CN(C(=O)Nc3ccc(S(=O)(=O)C(F)(F)F)cc3)N=C2c2ccc(Br)cc2)c1 (stereo not drawn) [drawing 82] | 100/100% |
| N#Cc1cnn(C2CN(C(=O)Nc3ccc(OC(F)(F)F)cc3)N=C2c2ccc(Br)cc2)c1 (stereo not drawn) [drawing 81] | 100/100% |

Same assay, conditions: 20 ppm; after 14 d

| SMILES | activity/kill rate in % after 14 d |
| --- | --- |
| N#Cc1cnn(C2CN(C(=O)Nc3ccc(SC(F)(F)F)cc3)N=C2c2ccc(Cl)cc2)c1 (stereo not drawn) [drawing 88] | 100/100% |
| N#Cc1cnn(C2CN(C(=O)Nc3ccc([S+]([O-])C(F)(F)F)cc3)N=C2c2ccc(Cl)cc2)c1 (stereo not drawn) [drawing 90] | 100/100% |
| N#Cc1cnn(C2CN(C(=O)Nc3ccc(C(F)(F)F)cc3)N=C2c2ccc(Cl)cc2)c1 (stereo not drawn) [drawing 86] | 100/100% |

Same assay, conditions: 100 ppm; after 48 h

| SMILES | activity/kill rate in % after 48 h |
| --- | --- |
| N#CCN(C(=O)N1CC(n2cc(C#N)cn2)C(c2ccc(Cl)cc2)=N1)c1ccc(OC(F)(F)F)cc1 (stereo not drawn) [drawing 85] | 100/100% |
| COC(=O)N(C(=O)N1CC(n2cc(C#N)cn2)C(c2ccc(Cl)cc2)=N1)c1ccc(OC(F)(F)F)cc1 (stereo not drawn) [drawing 79] | 100/100% |
| N#Cc1cnn(C2CN(C(=O)Nc3ccc(S(=O)(=O)C(F)(F)F)cc3)N=C2c2ccc(Br)cc2)c1 (stereo not drawn) [drawing 82] | 100/100% |
| N#Cc1cnn(C2CN(C(=O)Nc3ccc(OC(F)(F)F)cc3)N=C2c2ccc(Br)cc2)c1 (stereo not drawn) [drawing 81] | 100/100% |

Same assay, conditions: 100 ppm; after 14 d

| SMILES | activity/kill rate in % after 14 d |
| --- | --- |
| N#Cc1cnn(C2CN(C(=O)Nc3ccc(SC(F)(F)F)cc3)N=C2c2ccc(Cl)cc2)c1 (stereo not drawn) [drawing 88] | 100/100% |
| N#Cc1cnn(C2CN(C(=O)Nc3ccc([S+]([O-])C(F)(F)F)cc3)N=C2c2ccc(Cl)cc2)c1 (stereo not drawn) [drawing 90] | 100/100% |
| N#Cc1cnn(C2CN(C(=O)Nc3ccc(C(F)(F)F)cc3)N=C2c2ccc(Cl)cc2)c1 (stereo not drawn) [drawing 86] | 100/100% |

Same assay, conditions: Lucilia cuprina, 48 h, read-out: activity/kill rate in % after 48 h

| SMILES | pest or weed control at 100 ppm [%] |
| --- | --- |
| CCOC(=O)N(C(=O)N1CC(n2cc(C#N)cn2)C(c2ccc(Cl)cc2)=N1)c1ccc(OC(F)(F)F)cc1 (stereo not drawn) [drawing 80] | 100 |

Test system: not listed separately
Assay: logP determination by HPLC on reversed-phase column (EEC Directive 79/831 Annex V.A8)
Format: physicochemical
Conditions: pH 2.3
Procedure: The logP values given in the Preparation Examples and Tables above are determined in accordance with EEC Directive 79/831 Annex V.A8 by HPLC (High Performance Liquid Chromatography) using a reversed-phase column (C 18). Temperature: 43° C.
The determination in the acidic range is carried out at pH 2.3 using the mobile phases 0.1% aqueous phosphoric acid and acetonitrile; linear gradient from 10% acetonitrile to 90% acetonitrile.
Calibration is carried out using unbranched alkan-2-ones (having 3 to 16 carbon atoms) with known logP values (determination of the logP values by the retention times using linear interpolation between two successive alkanones).

| logP (pH 2)/m.p. | logP (pH 2) | SMILES |
| --- | --- | --- |
| 3.86 |  | N#Cc1cnn(C2CN(C(=O)Nc3ccc(C(F)(F)F)cc3)N=C2c2ccc(Cl)cc2)c1 (stereo not drawn) [Example 4] |
| 3.90 |  | N#CCN(C(=O)N1CC(n2cc(C#N)cn2)C(c2ccc(Cl)cc2)=N1)c1ccc(SC(F)(F)F)cc1 (stereo not drawn) [Example 32] |
| 3.94 |  | N#Cc1cnn(C2CN(C(=O)Nc3ccc(C(F)(F)F)cc3)N=C2c2ccc(Br)cc2)c1 (stereo not drawn) [Example 37] |
|  | 2.91 | N#Cc1cnn(CC(=O)c2ccc(SC(F)(F)F)cc2)c1 [VI-5] |
|  | 2.47 | N#Cc1cnn(CC(=O)c2ccc(I)cc2)c1 [VI-4] |
|  | 2.31 | N#Cc1cnn(CC(=O)c2ccc(Br)cc2)c1 [VI-3] |
| 4.35 |  | N#Cc1cnn(C2CN(C(=O)Nc3ccc(SC(F)(F)F)cc3)N=C2c2ccc(Br)cc2)c1 (stereo not drawn) [Example 10] |
| 3.73 |  | N#Cc1cnn(C2CN(C(=O)Nc3ccc(Br)cc3)N=C2c2ccc(Cl)cc2)c1 (stereo not drawn) [Example 28] |
| 4.48 |  | N#Cc1cnn(C2CN(C(=O)Nc3ccc(SC(F)(F)F)cc3)N=C2c2ccc(I)cc2)c1 (stereo not drawn) [Example 14] |
|  | 1.33 | NC(=O)c1cnn(CC(=O)c2ccc(Cl)cc2)c1 [VI-8] |
|  | 2.20 | N#Cc1cnn(C2CNN=C2c2ccc(Br)cc2)c1 (stereo not drawn) [II-2] |
|  | 2.82 | N#CCNc1ccc(SC(F)(F)F)cc1 [XII-2] |
|  | 1.44 | CNC(=O)c1cnn(CC(=O)c2ccc(Cl)cc2)c1 [VI-7] |
|  | 2.13 | COC(=O)c1cnn(C2CNN=C2c2ccc(Cl)cc2)c1 (stereo not drawn) [II-5] |
| 3.39 |  | CNC(=O)c1cnn(C2CN(C(=O)Nc3ccc(SC(F)(F)F)cc3)N=C2c2ccc(Cl)cc2)c1 (stereo not drawn) [Example 21] |
| 4.73 |  | N#Cc1cnn(C2CN(C(=O)Nc3ccc(SC(F)(F)F)cc3)N=C2c2ccc(SC(F)(F)F)cc2)c1 (stereo not drawn) [Example 16] |
| 3.99 |  | N#CCN(C(=O)N1CC(n2cc(C#N)cn2)C(c2ccc(Br)cc2)=N1)c1ccc(SC(F)(F)F)cc1 (stereo not drawn) [Example 34] |
|  | 1.54 | CN(C)C(=O)c1cnn(C2CNN=C2c2ccc(Cl)cc2)c1 (stereo not drawn) [II-6] |
|  | 2.33 | N#Cc1cnn(C2CNN=C2c2ccc(I)cc2)c1 (stereo not drawn) [II-3] |
| 3.78 |  | N#Cc1cnn(C2CN(C(=O)Nc3ccc(S(=O)(=O)C(F)(F)F)cc3)N=C2c2ccc(Cl)cc2)c1 (stereo not drawn) [Example 18] |
| 3.95 |  | COC(=O)c1cnn(C2CN(C(=O)Nc3ccc(OC(F)(F)F)cc3)N=C2c2ccc(Cl)cc2)c1 (stereo not drawn) [Example 17] |
| 3.00 |  | N#Cc1ccc(NC(=O)N2CC(n3cc(C#N)cn3)C(c3ccc(Cl)cc3)=N2)cc1 (stereo not drawn) [Example 29] |
| 3.90 |  | N#Cc1cnn(C2CN(C(=O)Nc3ccc(I)cc3)N=C2c2ccc(Cl)cc2)c1 (stereo not drawn) [Example 30] |
| 3.24 |  | NC(=O)c1cnn(C2CN(C(=O)Nc3ccc(SC(F)(F)F)cc3)N=C2c2ccc(Cl)cc2)c1 (stereo not drawn) [Example 24] |

| logP (pH 2)/m.p. | logP (pH 2) | SMILES |
| --- | --- | --- |
| 3.28 |  | N#Cc1cnn(C2CN(C(=O)Nc3ccc([S+]([O-])C(F)(F)F)cc3)N=C2c2ccc(Cl)cc2)c1 (stereo not drawn) [Example 12] |
| 4.27 |  | N#Cc1cnn(C2CN(C(=O)Nc3ccc(SC(F)(F)F)cc3)N=C2c2ccc(Cl)cc2)c1 (stereo not drawn) [Example 5] |
|  | 2.20 | COC(=O)c1cnn(CC(=O)c2ccc(Cl)cc2)c1 [VI-6] |
| 2.94 |  | NC(=O)c1cnn(C2CN(C(=O)Nc3ccc(OC(F)(F)F)cc3)N=C2c2ccc(Cl)cc2)c1 (stereo not drawn) [Example 23] |
| 3.27 |  | CN(C)C(=O)c1cnn(C2CN(C(=O)Nc3ccc(OC(F)(F)F)cc3)N=C2c2ccc(Cl)cc2)c1 (stereo not drawn) [Example 19] |
| 3.63 |  | N#CCN(C(=O)N1CC(n2cc(C#N)cn2)C(c2ccc(Br)cc2)=N1)c1ccc(C(F)(F)F)cc1 (stereo not drawn) [Example 35] |
| 3.42 |  | N#CCN(C(=O)N1CC(n2cc(C#N)cn2)C(c2ccc(Cl)cc2)=N1)c1ccc(Cl)cc1 (stereo not drawn) [Example 31] |
| 3.75 |  | N#CCN(C(=O)N1CC(n2cc(C#N)cn2)C(c2ccc(Br)cc2)=N1)c1ccc(OC(F)(F)F)cc1 (stereo not drawn) [Example 33] |
| 3.56 |  | N#CCN(C(=O)N1CC(n2cc(C#N)cn2)C(c2ccc(Cl)cc2)=N1)c1ccc(C(F)(F)F)cc1 (stereo not drawn) [Example 36] |
| 3.91 |  | N#Cc1cnn(C2CN(C(=O)Nc3ccc(OC(F)(F)F)cc3)N=C2c2ccc(Cl)cc2)c1 (stereo not drawn) [Example 3] |
| 3.27 |  | CN(C)C(=O)c1cnn(C2CN(C(=O)Nc3ccc(S(=O)(=O)C(F)(F)F)cc3)N=C2c2ccc(Cl)cc2)c1 (stereo not drawn) [Example 27] |
|  | 2.36 | N#CCNc1ccc(C(F)(F)F)cc1 [XII-3] |
| 4.00 |  | N#Cc1cnn(C2CN(C(=O)Nc3ccc(OC(F)(F)F)cc3)N=C2c2ccc(Br)cc2)c1 (stereo not drawn) [Example 9] |
| 4.12 |  | N#Cc1cnn(C2CN(C(=O)Nc3ccc(OC(F)(F)F)cc3)N=C2c2ccc(I)cc2)c1 (stereo not drawn) [Example 13] |
|  | 1.38 | CNC(=O)c1cnn(C2CNN=C2c2ccc(Cl)cc2)c1 (stereo not drawn) [II-7] |
| 3.07 |  | CNC(=O)c1cnn(C2CN(C(=O)Nc3ccc(OC(F)(F)F)cc3)N=C2c2ccc(Cl)cc2)c1 (stereo not drawn) [Example 20] |
| 3.00 |  | CNC(=O)c1cnn(C2CN(C(=O)Nc3ccc(S(=O)(=O)C(F)(F)F)cc3)N=C2c2ccc(Cl)cc2)c1 (stereo not drawn) [Example 22] |
|  | 2.78 | N#Cc1cnn(C2CNN=C2c2ccc(SC(F)(F)F)cc2)c1 (stereo not drawn) [II-4] |
| 2.94 |  | NC(=O)c1cnn(C2CN(C(=O)Nc3ccc(S(=O)(=O)C(F)(F)F)cc3)N=C2c2ccc(Cl)cc2)c1 (stereo not drawn) [Example 25] |
| 4.39 |  | N#Cc1cnn(C2CN(C(=O)Nc3ccc(OC(F)(F)F)cc3)N=C2c2ccc(SC(F)(F)F)cc2)c1 (stereo not drawn) [Example 15] |
|  | 1.28 | NC(=O)c1cnn(C2CNN=C2c2ccc(Cl)cc2)c1 (stereo not drawn) [II-8] |
| 3.27 |  | CN(C)C(=O)c1cnn(C2CN(C(=O)Nc3ccc(SC(F)(F)F)cc3)N=C2c2ccc(Cl)cc2)c1 (stereo not drawn) [Example 26] |
| 3.88 |  | N#Cc1cnn(C2CN(C(=O)Nc3ccc(S(=O)(=O)C(F)(F)F)cc3)N=C2c2ccc(Br)cc2)c1 (stereo not drawn) [Example 11] |

| SMILES | logP (pH 2)/m.p. | logP (pH 2) |
| --- | --- | --- |
| CCOC(=O)N(C(=O)N1CC(n2cc(C#N)cn2)C(c2ccc(Cl)cc2)=N1)c1ccc(OC(F)(F)F)cc1 (stereo not drawn) [Example 7] | 4.06 |  |
| COC(=O)N(C(=O)N1CC(n2cc(C#N)cn2)C(c2ccc(Cl)cc2)=N1)c1ccc(OC(F)(F)F)cc1 (stereo not drawn) [Example 6] | 3.82 |  |

Same assay, conditions: reversed-phase C18 HPLC column; values in the text of the Preparation Examples; HPLC, acidic range pH 2.3, 43° C.; read-out: logP (pH 2)

| chromatographic logP | SMILES |
| --- | --- |
| 3.64 | N#Cc1cnn(C2CN(C(=O)Nc3ccc(Cl)cc3)N=C2c2ccc(Cl)cc2)c1 (stereo not drawn) [Example 1, 4′-chloro-3-(4-chlorophenyl)-4-(4-cyanopyrazol-1-yl)-4,5-dihydro-1-pyrazolecarboxanilide] |
| 1.67 | O=C(O)c1cnn(CC(=O)c2ccc(Cl)cc2)c1 [1-(4-chlorophenacyl)-pyrazole-4-carboxylic acid] |
| 1.62 | CN(C)C(=O)c1cnn(CC(=O)c2ccc(Cl)cc2)c1 [VI-2, N,N-dimethyl-1-(4-chlorophenacyl)-pyrazole-4-carboxamide] |
| 2.49 | N#CCNc1ccc(OC(F)(F)F)cc1 [XII-1, N-cyanomethyl-4-trifluoromethoxyaniline] |
| 3.68 | N#CCN(C(=O)N1CC(n2cc(C#N)cn2)C(c2ccc(Cl)cc2)=N1)c1ccc(OC(F)(F)F)cc1 (stereo not drawn) [Example 2, 3-(4-chlorophenyl)-4-(4-cyanopyrazol-1-yl)-4,5-dihydro-1-pyrazole-(N-cyanomethyl)-4′-trifluoromethoxycarboxanilide] |
